We go through nine compounds from US20120220581A1, “IMIDAZO[1,2-b]PYRIDAZINE DERIVATIVES AND THEIR USE AS PDE10 INHIBITORS” (Janssen-Cilag, S.A., priority 2009, published 2012).

Where two headings read alike, the source gives them in different places.

Assay [1] has as its target PDE4D3 (Homo sapiens, UniProt Q08499). The assay can be described thus: In vitro PDE selectivity assay (SPA), PDE4D3. The assay is classed as biochemical. Conditions: hPDE4D3; read-out: PDE 4D3 (expressed as pIC50) (converted). An outline of the steps:
(§1)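 Inhibition of each PDE isoform was measured by scintillation proximity assay with ³H-cyclic nucleotide substrate, using incubation buffer, substrate concentration, incubation time and stop solution adapted per isoform. Compounds were tested in dose-response against 1% DMSO controls and enzyme-free blanks. IC50 came from a least-squares fit of blank-subtracted % of control versus concentration.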

The target in assay [2] is PDE5A3 (Homo sapiens, UniProt O76074). The assay can be described thus: In vitro PDE selectivity assay (SPA), PDE5A3. The assay is classed as biochemical. Conditions: hPDE5A3; read-out: PDE 5A3 (expressed as pIC50) (converted). An outline of the steps:
as §1

Assay [3] addresses T1, Rat recombinant PDE10A (rPDE10A2) (Rattus norvegicus, UniProt Q9QYJ6).
T1 construct: inferred from the Ni metal chelate purification; made in house; host or cells: Sf9 insect cells (baculovirus)
T1 sequence (Q9QYJ6 1-794): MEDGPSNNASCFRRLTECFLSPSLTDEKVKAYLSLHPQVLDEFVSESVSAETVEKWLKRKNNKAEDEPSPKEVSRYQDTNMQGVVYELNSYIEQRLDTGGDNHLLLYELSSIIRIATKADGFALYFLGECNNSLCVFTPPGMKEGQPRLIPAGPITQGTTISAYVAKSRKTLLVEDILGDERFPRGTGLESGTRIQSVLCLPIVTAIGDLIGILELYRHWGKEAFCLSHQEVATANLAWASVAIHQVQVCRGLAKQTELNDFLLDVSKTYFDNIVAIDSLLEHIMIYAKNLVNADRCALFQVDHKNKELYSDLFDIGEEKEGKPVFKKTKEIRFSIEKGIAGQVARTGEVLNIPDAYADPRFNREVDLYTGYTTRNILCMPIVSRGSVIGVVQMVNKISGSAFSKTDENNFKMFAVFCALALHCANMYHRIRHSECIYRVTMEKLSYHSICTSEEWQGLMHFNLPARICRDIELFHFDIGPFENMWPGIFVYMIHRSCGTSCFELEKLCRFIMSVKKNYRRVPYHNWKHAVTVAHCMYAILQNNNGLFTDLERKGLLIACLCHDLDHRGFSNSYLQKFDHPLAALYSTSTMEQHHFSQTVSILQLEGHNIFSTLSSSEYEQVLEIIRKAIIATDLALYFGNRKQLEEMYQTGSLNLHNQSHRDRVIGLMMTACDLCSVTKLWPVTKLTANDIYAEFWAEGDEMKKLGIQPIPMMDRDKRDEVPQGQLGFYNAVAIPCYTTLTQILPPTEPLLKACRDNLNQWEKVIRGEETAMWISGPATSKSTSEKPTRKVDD
The assay can be described thus: In vitro assay PDE10A (SPA, 3H-cAMP). The assay is classed as biochemical. The method in brief: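 Rat PDE10A2 expressed in Sf9 cells and Ni-purified; incubated with 60 nM cAMP plus 0.008 μCi 3H-cAMP in 50 mM Tris pH 7.8, 8.3 mM MgCl2, 1.7 mM EGTA for 60 min at room temperature. Product quantified by scintillation proximity counting; final DMSO 1%.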

In assay [4] the target is other members of the PDE family (Homo sapiens, UniProt O76083). Kind of assay: In vitro PDE selectivity assay (SPA), other members of the PDE family (protocols in Table A). The format is biochemical. Conditions: hPDE9A; read-out: PDE 9A (expressed as pIC50) (converted). The method in brief:
as §1

Assay [5] concerns the target other members of the PDE family (Homo sapiens, UniProt Q14432). The description is as above. The assay is classed as biochemical. The settings on record: hPDE3A; read-out: PDE 3A (expressed as pIC50) (converted). The method in brief: as §1
Assay [6] concerns the target other members of the PDE family (Homo sapiens, UniProt Q9HCR9). The assay is described as above. The assay is classed as biochemical. The settings on record: hPDE11A4; read-out: PDE 11A4 (expressed as pIC50) (converted). The method in brief: as §1
Assay [7] has as its target other members of the PDE family (Homo sapiens, UniProt O00408). The description is as above. Conditions: hPDE2A; read-out: PDE 2A (expressed as pIC50) (converted). The format is biochemical. An outline of the steps: as §1
Assay [8] concerns the target other members of the PDE family (Homo sapiens, UniProt Q13946). Described as above. The format is biochemical. The settings on record: hPDE7A1; read-out: PDE 7A (expressed as pIC50) (converted). An outline of the steps: as §1
Assay [9] deals with apomorphine-induced stereotypy in rats. The assay can be described thus: Apomorphine-induced stereotypy in rats (APO). The assay is classed as in vivo. Conditions: Rattus norvegicus; dose at which 50% of the tested animals show the effect; ≧: active in 30% of the animals at the indicated dose; ≦: active in 60%. The protocol:
Apomorphine (1.0 mg/kg, i.v.)-induced stereotypy (compulsive sniffing, licking, chewing) was scored every 5 min over the first hour after injection of apomorphine, following a 1 hour interval pre-treatment with the test compound. The score system was: (3) pronounced, (2) moderate, (1) slight, and (0) absent.

The target of assay [10] is T2, PDE10 (Rattus norvegicus, UniProt Q9QYJ6).
T2 construct: from tissue; host or cells: rat brain sections, striatum (in vivo dosing, ex vivo autoradiography)
T2 sequence (Q9QYJ6 1-794): T1 sequence (Q9QYJ6 1-794)
Kind of assay: PDE10 occupancy ([3H]-MP-10, striatum). Conditions: for receptor occupancy at 10 mg/kg / ED50: rat, sc; for receptor occupancy at 10 mg/kg: single dose 10 mg/kg, subcutaneous, read-out: SD sc % occupancy at 10 mg/kg; for ED50: dose response, subcutaneous administration, read-out: PDE10 in vivo occupancy ED50 sc. The assay is classed as in vivo. The method in brief: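 Male Wistar rats (200 g) dosed s.c. or p.o.; occupancy measured 1 h post-dose. [^3H]-MP-10 (10 μCi/animal) given i.v. 30 min before sacrifice.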

The mark [11] stands for this setting: Table 4 in vitro selectivity, read-out: PDE 10A2 (expressed as pIC50) (converted).
[12] abbreviates: pIC50 corresponds to the −log IC50 expressed in mol/L, read-out: PDE10A2 pIC50 (converted).

other members of the PDE family (Homo sapiens, UniProt Q13946), sequence (Q13946 whole entry): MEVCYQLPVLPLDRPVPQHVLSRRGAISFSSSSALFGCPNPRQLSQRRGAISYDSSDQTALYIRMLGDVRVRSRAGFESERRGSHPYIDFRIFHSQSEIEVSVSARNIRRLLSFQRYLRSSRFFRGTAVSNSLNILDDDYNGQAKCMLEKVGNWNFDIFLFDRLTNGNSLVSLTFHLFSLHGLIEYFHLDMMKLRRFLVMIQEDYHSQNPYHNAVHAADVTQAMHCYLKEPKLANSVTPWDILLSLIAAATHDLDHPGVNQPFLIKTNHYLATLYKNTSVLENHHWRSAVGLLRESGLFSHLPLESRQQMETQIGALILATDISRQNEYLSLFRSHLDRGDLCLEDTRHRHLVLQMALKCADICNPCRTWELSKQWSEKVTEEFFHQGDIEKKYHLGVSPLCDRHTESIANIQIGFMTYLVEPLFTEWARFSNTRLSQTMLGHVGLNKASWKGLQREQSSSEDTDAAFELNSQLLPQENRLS
other members of the PDE family (Homo sapiens, UniProt Q9HCR9), sequence (Q9HCR9 whole entry): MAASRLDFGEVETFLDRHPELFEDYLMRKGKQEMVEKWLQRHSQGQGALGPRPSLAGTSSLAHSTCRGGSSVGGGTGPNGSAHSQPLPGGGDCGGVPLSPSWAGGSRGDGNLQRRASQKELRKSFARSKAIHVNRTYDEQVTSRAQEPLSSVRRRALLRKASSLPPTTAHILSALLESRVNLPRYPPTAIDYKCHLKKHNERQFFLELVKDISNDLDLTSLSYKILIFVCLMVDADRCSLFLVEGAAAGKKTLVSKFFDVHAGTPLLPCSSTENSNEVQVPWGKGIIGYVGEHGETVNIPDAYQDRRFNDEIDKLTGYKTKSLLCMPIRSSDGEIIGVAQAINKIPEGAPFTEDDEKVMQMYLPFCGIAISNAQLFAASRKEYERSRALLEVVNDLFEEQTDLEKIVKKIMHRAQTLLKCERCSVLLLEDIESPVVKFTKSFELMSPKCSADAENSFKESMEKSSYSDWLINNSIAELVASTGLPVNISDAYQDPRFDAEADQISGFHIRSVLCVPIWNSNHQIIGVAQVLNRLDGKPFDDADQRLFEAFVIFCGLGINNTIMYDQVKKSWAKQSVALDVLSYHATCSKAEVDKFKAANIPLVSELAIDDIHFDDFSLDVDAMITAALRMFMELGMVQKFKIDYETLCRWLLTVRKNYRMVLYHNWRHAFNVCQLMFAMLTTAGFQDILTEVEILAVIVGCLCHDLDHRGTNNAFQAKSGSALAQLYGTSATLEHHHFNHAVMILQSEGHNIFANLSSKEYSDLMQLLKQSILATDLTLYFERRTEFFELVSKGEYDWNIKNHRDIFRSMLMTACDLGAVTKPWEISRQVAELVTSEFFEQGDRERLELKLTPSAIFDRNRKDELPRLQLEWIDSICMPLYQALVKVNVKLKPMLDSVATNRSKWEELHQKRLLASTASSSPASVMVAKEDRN
other members of the PDE family (Homo sapiens, UniProt O00408), sequence (O00408 whole entry): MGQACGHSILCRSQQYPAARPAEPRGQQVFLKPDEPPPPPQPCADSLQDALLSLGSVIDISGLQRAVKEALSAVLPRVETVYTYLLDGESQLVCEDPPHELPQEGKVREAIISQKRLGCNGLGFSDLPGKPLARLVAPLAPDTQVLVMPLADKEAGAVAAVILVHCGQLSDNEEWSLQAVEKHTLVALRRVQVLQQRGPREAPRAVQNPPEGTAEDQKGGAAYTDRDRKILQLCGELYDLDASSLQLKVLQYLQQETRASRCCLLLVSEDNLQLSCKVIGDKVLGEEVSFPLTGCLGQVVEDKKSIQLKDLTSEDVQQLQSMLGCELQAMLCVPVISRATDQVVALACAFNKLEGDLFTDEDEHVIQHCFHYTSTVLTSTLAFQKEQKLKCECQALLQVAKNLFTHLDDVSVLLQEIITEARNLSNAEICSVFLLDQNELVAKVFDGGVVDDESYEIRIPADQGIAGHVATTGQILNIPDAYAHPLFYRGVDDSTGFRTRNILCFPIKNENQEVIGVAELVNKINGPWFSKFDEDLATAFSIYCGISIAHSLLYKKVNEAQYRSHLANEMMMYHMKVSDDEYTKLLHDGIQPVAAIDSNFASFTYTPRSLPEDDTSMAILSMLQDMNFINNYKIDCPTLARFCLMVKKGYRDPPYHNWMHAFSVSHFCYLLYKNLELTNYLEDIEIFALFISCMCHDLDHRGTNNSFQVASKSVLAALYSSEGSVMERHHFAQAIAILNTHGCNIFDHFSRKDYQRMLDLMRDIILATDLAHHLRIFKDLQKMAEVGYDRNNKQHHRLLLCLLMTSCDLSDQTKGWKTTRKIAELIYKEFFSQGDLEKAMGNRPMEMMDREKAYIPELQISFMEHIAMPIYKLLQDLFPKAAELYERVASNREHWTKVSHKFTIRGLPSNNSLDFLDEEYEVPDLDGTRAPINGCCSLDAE
other members of the PDE family (Homo sapiens, UniProt O76083), sequence (O76083 whole entry): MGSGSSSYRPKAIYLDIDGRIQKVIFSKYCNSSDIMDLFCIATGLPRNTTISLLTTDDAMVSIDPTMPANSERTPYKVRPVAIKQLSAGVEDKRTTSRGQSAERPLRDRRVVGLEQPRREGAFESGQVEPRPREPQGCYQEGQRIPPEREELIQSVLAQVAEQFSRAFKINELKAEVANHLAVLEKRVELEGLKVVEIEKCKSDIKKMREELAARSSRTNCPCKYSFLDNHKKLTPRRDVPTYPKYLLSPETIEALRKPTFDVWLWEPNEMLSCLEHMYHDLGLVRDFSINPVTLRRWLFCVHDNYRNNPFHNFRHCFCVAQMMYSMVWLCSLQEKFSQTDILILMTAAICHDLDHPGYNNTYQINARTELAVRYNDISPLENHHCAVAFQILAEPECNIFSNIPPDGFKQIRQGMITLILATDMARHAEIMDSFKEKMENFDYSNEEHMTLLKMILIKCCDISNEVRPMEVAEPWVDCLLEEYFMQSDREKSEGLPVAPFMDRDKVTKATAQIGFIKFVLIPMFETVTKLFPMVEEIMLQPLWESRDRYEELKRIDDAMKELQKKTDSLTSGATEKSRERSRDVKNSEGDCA
other members of the PDE family (Homo sapiens, UniProt Q14432), sequence (Q14432 whole entry): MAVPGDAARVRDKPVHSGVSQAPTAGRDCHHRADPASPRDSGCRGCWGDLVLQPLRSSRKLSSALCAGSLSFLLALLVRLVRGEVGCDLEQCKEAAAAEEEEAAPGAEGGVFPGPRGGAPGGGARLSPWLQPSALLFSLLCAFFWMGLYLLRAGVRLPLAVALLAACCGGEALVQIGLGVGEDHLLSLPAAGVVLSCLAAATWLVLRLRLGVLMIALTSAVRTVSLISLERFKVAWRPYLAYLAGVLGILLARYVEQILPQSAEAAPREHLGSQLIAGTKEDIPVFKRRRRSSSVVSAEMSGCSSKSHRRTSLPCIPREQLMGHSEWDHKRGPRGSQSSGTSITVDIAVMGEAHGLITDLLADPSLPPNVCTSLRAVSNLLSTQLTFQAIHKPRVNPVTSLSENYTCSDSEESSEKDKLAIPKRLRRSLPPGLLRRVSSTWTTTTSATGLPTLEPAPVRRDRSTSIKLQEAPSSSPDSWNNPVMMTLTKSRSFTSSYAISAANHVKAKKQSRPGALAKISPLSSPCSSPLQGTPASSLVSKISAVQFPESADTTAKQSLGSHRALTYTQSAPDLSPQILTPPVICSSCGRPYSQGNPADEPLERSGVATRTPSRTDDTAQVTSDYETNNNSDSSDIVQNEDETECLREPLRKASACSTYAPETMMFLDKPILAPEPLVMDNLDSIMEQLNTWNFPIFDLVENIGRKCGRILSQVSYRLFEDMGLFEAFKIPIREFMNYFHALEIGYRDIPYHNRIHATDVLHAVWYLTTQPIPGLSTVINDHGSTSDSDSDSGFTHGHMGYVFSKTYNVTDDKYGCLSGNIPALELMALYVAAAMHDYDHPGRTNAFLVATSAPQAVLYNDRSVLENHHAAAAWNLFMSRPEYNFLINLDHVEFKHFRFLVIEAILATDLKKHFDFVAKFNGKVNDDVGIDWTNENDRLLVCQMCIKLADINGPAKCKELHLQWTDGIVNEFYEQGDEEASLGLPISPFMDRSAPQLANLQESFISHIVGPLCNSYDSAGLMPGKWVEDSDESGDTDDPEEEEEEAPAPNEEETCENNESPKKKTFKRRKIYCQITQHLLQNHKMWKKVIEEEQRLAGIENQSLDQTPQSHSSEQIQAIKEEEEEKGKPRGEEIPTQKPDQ
PDE4D3, sequence (Q08499 1-673 isoform Q08499-2): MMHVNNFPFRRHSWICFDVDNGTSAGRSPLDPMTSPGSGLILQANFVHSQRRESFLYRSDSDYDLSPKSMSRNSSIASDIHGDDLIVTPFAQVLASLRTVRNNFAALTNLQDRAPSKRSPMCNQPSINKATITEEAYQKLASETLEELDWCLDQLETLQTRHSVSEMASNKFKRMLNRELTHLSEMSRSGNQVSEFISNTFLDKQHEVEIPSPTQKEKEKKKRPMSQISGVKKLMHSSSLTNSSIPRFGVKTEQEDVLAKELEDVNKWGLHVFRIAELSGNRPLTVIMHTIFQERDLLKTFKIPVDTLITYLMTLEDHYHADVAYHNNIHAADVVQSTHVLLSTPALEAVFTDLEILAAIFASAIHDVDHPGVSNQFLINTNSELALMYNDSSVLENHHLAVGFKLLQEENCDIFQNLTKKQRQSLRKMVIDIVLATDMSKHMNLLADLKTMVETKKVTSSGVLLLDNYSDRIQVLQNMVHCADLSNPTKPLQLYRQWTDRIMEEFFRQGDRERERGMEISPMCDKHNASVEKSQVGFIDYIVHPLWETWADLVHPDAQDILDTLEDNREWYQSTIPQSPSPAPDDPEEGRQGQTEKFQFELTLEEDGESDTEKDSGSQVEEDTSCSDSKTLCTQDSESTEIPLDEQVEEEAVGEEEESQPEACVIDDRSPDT

`Cc1nc2c(N3CCOCC3)ccnn2c1-c1cnn(CC(C)C)c1` [compound 35, 2-methyl-3-[1-(2-methylpropyl)-1H-pyrazol-4-yl]-8-(4-morpholinyl)-imidazo[1,2-b]pyridazine]: the IC50 is more than 10 µM in assay [1]; more than 10 µM in assay [2]; 38 nM in assay [3] (setting [11]); 38 nM in [3] (setting [12]); more than 10 µM in assay [4]; 7.41 µM in [5]. Moreover, the IC50 in [6], in [7] and in assay [8] was more than 10 µM in each case. Besides, the 50% effect level in assay [9] (ED50) was put at a dose of 5 mg/kg. In addition, the receptor occupancy at 10 mg/kg in assay [10] turned out to be 67%.

In the case of `CCc1nc2c(N3CCOCC3)ccnn2c1-c1cnn(CCOC)c1` [compound 127, 2-ethyl-3-[1-(2-methoxyethyl)-1H-pyrazol-4-yl]-8-(4-morpholinyl)-imidazo[1,2-b]pyridazine], the IC50 in [1] is more than 10 µM; in [2], 4.68 µM; in assay [3] (setting [11]), 112 nM; in assay [3] (setting [12]) it was 112 nM; in [4], more than 10 µM; in assay [5], more than 10 µM. The IC50 in assay [6], in assay [7] and in assay [8] was more than 10 µM in each case. Also, it took a dose of 2 mg/kg to reach the 50% effect level in [9] (ED50). Besides, in assay [10], the receptor occupancy at 10 mg/kg stood at 4%.

For `COC(C)(C)Cn1cc(-c2c(C)nc3c(N4CCOCC4)ccnn23)cn1` [compound 37, 3-[1-(2-methoxy-2-methylpropyl)-1H-pyrazol-4-yl]-2-methyl-8-(4-morpholinyl)-imidazo[1,2-b]pyridazine], the IC50 in assay [1] is 30.9 µM; in assay [2] it was 6.03 µM; in [3] (setting [11]) it was 50.1 nM; in assay [3] (setting [12]), 50.1 nM; in assay [4] it was more than 100 µM; in assay [5], 11 µM. Moreover, the IC50 is 39.8 µM in assay [6], 53.7 µM in [7] and 45.7 µM in assay [8]. Also, the values for the ED50 in assay [9] and in assay [10] were 1.5 mg/kg and 2.2 mg/kg, respectively. The receptor occupancy at 10 mg/kg in [10] came to 67%.

As to `CC(C)Cn1cc(-c2c(C3CC3)nc3c(-c4ccncc4)ccnn23)cn1` [compound 148, 2-cyclopropyl-3-[1-(2-methylpropyl)-1H-pyrazol-4-yl]-8-(4-pyridinyl)-imidazo[1,2-b]pyridazine], the IC50 was 2.57 µM in [1]; 1.23 µM in assay [2]; 25.1 nM in assay [3] (setting [11]); 25.1 nM in assay [3] (setting [12]); more than 10 µM in assay [4]; 3.16 µM in [5]. Also, the values for the IC50 in assay [6], in [7] and in assay [8] were 1.91 µM, 4.37 µM and 2.88 µM, respectively. Also, the 50% effect level in [9] (ED50) was put at a dose of 5 mg/kg. Further, the receptor occupancy at 10 mg/kg in [10] turned out to be 66%.

On to `Cc1nc2c(N3CCOCC3)ccnn2c1-c1ccc(N2CCOCC2)nc1` [compound 19, 2-methyl-8-(4-morpholinyl)-3-[6-(4-morpholinyl)-3-pyridinyl]-imidazo[1,2-b]pyridazine], for which the IC50 in [1] was more than 10 µM; in assay [2], more than 10 µM; in assay [3] (setting [11]), 107 nM; in assay [3] (setting [12]), 107 nM; in assay [4] it was more than 10 µM; in [5], more than 10 µM. Further, the IC50 in assay [6], in assay [7] and in assay [8] was more than 10 µM throughout. Also, the ED50 (commonly the dose at which the effect has come halfway, by size or by number of responders) in [9] amounted to 5 mg/kg. The receptor occupancy at 10 mg/kg in assay [10] was found to be 57%.

Consider `COCCc1ccc(-c2c(C3CC3)nc3c(N4CCOCC4)ccnn23)cn1` [compound 22, 2-cyclopropyl-3-[6-(2-methoxyethyl)-3-pyridinyl]-8-(4-morpholinyl)-imidazo[1,2-b]pyridazine], for which the IC50 in [1] was 2.75 µM; in assay [2], 3.47 µM; in assay [3] (setting [11]) it was 56.2 nM; in assay [3] (setting [12]), 56.2 nM; in assay [4], more than 50.1 µM; in assay [5] it was more than 50.1 µM. Moreover, the IC50 in assay [6] was 6.76 µM; in assay [7], 5.89 µM; in assay [8], 28.2 µM. Moreover, the ED50 in [9] amounted to 0.5 mg/kg; in assay [10] it was 0.94 mg/kg.

With `COC(C)(C)Cc1ccc(-c2c(C)nc3c(N4CCOCC4)ccnn23)cn1` [compound 3, 3-[6-(2-methoxy-2-methylpropyl)-3-pyridinyl]-2-methyl-8-(4-morpholinyl)-imidazo[1,2-b]pyridazine], the IC50 was more than 10 µM in assay [1]; 7.94 µM in assay [2]; 26.3 nM in assay [3] (setting [11]); 26.3 nM in assay [3] (setting [12]); more than 10 µM in assay [4]; more than 10 µM in [5]. Further, the IC50 in [6], in assay [7] and in assay [8] was more than 10 µM in each case. Besides, the values for the ED50 in assay [9] and in [10] were 0.8 mg/kg and 2 mg/kg, respectively.

For the compound `COCCn1cc(-c2c(C3CC3)nc3c(-c4ccncc4)ccnn23)cn1` [compound 142, 2-cyclopropyl-3-[1-(2-methoxyethyl)-1H-pyrazol-4-yl]-8-(4-pyridinyl)-imidazo[1,2-b]pyridazine], the IC50 in assay [1] is 2.82 µM; in [2], 1.15 µM; in assay [3] (setting [11]), 14.5 nM; in assay [3] (setting [12]), 14.5 nM; in assay [4], more than 10 µM; in assay [5], 5.13 µM. In addition, the IC50 was 1.82 µM in assay [6], 5.5 µM in assay [7] and 5.01 µM in [8]. The compound also came in with an ED50 in [9] of 5 mg/kg. Also, in [10], the receptor occupancy at 10 mg/kg came to 78%.

On to `Cc1nc2c(N3CCOCC3)ccnn2c1-c1ccc(N2CCNCC2)nc1` [compound 30, 2-methyl-8-(4-morpholinyl)-3-[6-(1-piperazinyl)-3-pyridinyl]-imidazo[1,2-b]pyridazine], for which the IC50 is more than 10 µM in assay [1]; more than 10 µM in assay [2]; 123 nM in assay [3] (setting [11]); 123 nM in assay [3] (setting [12]); more than 10 µM in assay [4]; more than 10 µM in [5]. The IC50 in assay [6], in assay [7] and in assay [8] was more than 10 µM in each case. In addition, the results for the ED50 in assay [9] and in [10] were 7.1 mg/kg and more than 10 mg/kg, respectively. In addition, the “% occupancy at the highest dose tested” value in [10] (dose response sc, data between brackets) was 6%.
